Measured values reported in US7598244B2, “[1,2,4]triazolo[1,5,a]pyrimidin-2-ylurea derivative and use thereof” (Nippon Kayaku Kabushiki Kaisha, priority 2003, dated 2009).
pEC50, pIC50: −log10 of the molar value. Like-named read-outs stand apart in the source and are kept apart here.

Columns and labels:
Type in all cases: cell-based
[1] = system: MHC class I molecules of T1 cells (human lymphoma cell line 174×CEM.); test: Effect on expression of MHC class I from T1 cells (flow cytometry, MFI); settings: 3 days culture
How it was run: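 EC20 is the compound level that lowers MHC class I MFI by 20% relative to compound-free cultures. Read-out was flow cytometry after FITC W6/32 staining.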

mouse splenic cells = test: Inhibitory action on blastogenesis of mouse splenic cells ([3H]-thymidine incorporation); settings: 72 hours
Protocol: Inhibitory Action on Blastogenesis of Mouse Splenic Cells
The spleen was excised from each of BALB/c mice (Charles River Japan; female; 10-week-old), and it was allowed to pass through a mesh to obtain a single cell suspension. This single cell suspension was prepared to be 1.0×10^6 cells/ml. Thereafter, 200 μl of the suspension was fractionated into each well of a 96-well plate. Thereafter, as blastogenic stimulation, 5 μg/ml concanavalin A (Pharmacia) or 25 μg/ml Escherichia coli-derived lipopolysaccharide (DIFCO) was added to the well, and then, a solution containing a test compound with each different concentration was further added thereto at an amount of 20 μl/well. The obtained mixture was cultured at 37° C. for 72 hours in an incubator containing 5% carbon dioxide. Thereafter, a 1 μCi/10 μl/well [^3H]-thymidine solution was added thereto 64 hours after initiation of the culture. After completion of the culture (72 hours later), the cells were captured on a filter using a cell harvester, and they were then dried. Thereafter, scintillator was added thereto, and the radioactivity of [^3H]-thymidine incorporated into the cells was then measured using a liquid scintillation counter. The inhibition rate of the DNA synthesis was calculated using the aforementioned formula (3). Thereafter, the concentration of a test compound necessary for inhibition of 50% (IC50 value) was obtained.

[2] = system: MHC class I molecules of human peripheral blood-derived dendritic cells; test: Effect on expression of MHC class I molecules from human peripheral blood-derived dendritic cells; settings: dendritic cells matured with TNF-α, 3 days; read-out: EC50 (reduction of 50% of the number of cells wherein MHC class I molecules were highly expressed)
Text: Effect on Expression of MHC Class I Molecules from Human Peripheral Blood-Derived Dendritic Cells
Monocytes were isolated from human peripheral blood by the specific gravity centrifugation method. Thereafter, using mouse anti-human CD14 antibody-binding microbeads and a magnetic cell separation system (Miltenyi Biotec), CD14 positive cells were separated from the peripheral blood monocytes. The separated CD14 positive cells were suspended in an RPMI 1640 medium containing 10% FBS, and the suspension was then inoculated in a 6-well plate, resulting in a concentration of 1.0×10^6 cells/well. It was cultured at 37° C. for 20 minutes in an incubator containing 5% carbon dioxide. […] Thereafter, RPMI 1640 containing a 500 U/ml human recombinant […] (hereinafter referred to as GM-CSF; Anapure Bioscientific), 50 ng/ml human recombinant interleukin 4 (hereinafter referred to as IL-4; Pepro Tech), and 10% FBS, was added to the remaining suspension at a concentration of 2 ml/well. The obtained mixture was then cultured at 37° C. in an incubator containing 5% carbon dioxide. When adhesive CD14 positive cells are cultured in the presence of GM-CSF and IL-4, the CD14 positive cells were differentiated into non-adhesive immature dendritic cells. After the cells had been cultured for 7 days, non-adhesive cells were recovered to obtain immature dendritic cells. Using a 6-well plate, the immature dendritic cells (2.5×10^5 cells/well) were cultured in RPMI 1640 containing a 100 U/ml human recombinant tumor necrosis factor-α (hereinafter referred to as TNF-a; Pepro Tech), a test compound, and 10% FBS, at 37° C. for 3 days in an incubator containing 5% carbon dioxide. The dendritic cells became mature as a result of the presence of TNF-α, but in the present test, a test compound was allowed to simultaneously act on the cells. The mature dendritic cells were then stained with fluoroisothiocyanate-labeled mouse anti-human MHC class I monoclonal antibody (an antibody generated from the cell line W6/32 (ATCC No. CRL 1991)). The rate of the number of cells wherein MHC class I molecules were highly expressed to the total number of cells was measured by flow cytometry. The reduction rate of the number of cells wherein MHC class I molecules were highly expressed was calculated using the following formula (2), and the concentrations of test compounds necessary for reduction of 50% (EC50 values) were obtained.
[formula] • Eexp: (The number of cells, wherein MHC class I molecules are highly expressed, in cultured cells containing test compound)/(the total number of cells) • Cexp: (The number of cells, wherein MHC class I molecules are highly expressed, in cultured cells containing no test compounds)/(the total number of cells)

[3] = system: human dendritic cells cultured with human allogenic T cells; test: Effect on the ability of human dendritic cells to induce the growth of allogenic T cells ([3H]-thymidine incorporation); settings: dendritic cells treated 3 days with test compound and TNF-α, then 5 days with allogenic T cells, read-out: IC50 (inhibition of DNA synthesis of lymphocytes)
Protocol: Effect on the Ability of Human Dendritic Cells to Induce the Growth of Allogenic T Cells
Immature dendritic cells were cultured with a test compound and TNF-α for 3 days by the same method as that described in Test Example 2. The obtained dendritic cells (2.5×10^3 cells/50 μl/well) were cultured together with human allogenic T cells (2.0×10^5 cells/150 μl/well) in a 96-well flat bottom plate at 37° C. for 5 days in an incubator containing 5% carbon dioxide. Thereafter, [^3H]-thymidine (Amersham Pharmacia Biotech) was added thereto at an amount of 1 μCi/10 μl/well, 16 hours before completion of the culture. After completion of the culture, cells were captured on a glass filter using a cell harvester (Skatron Instrument) and then dried. Thereafter, Scintillator ACS-II (Amersham Pharmacia Biotech) was added thereto, and the radioactivity of [^3H]-thymidine incorporated into the cells were then measured using a liquid scintillation counter. The inhibition rate of the DNA synthesis of lymphocytes was calculated using the following formula (3). Thereafter, the concentration of a test compound necessary for inhibition of 50% (IC50 value) was obtained.
[formula] • Eexp: The amount of [^3H]-thymidine incorporated into cultured cells containing test compound • Cexp: The amount of [^3H]-thymidine incorporated into cultured cells containing no test compounds

[4] = 5 μg/ml concanavalin A, read-out: Lymphocyte blastogenesis IC50 (μM), ConA stimulation
[5] = 25 μg/ml Escherichia coli-derived lipopolysaccharide, read-out: Lymphocyte blastogenesis IC50 (μM), LPS stimulation
[6] = Mus musculus, Lymphocyte, 5 μg/ml concanavalin A, read-out: Lymphocyte blastogenesis IC50 (μM), ConA stimulation
[7] = Mus musculus, Lymphocyte, 25 μg/ml Escherichia coli-derived lipopolysaccharide, read-out: Lymphocyte blastogenesis IC50 (μM), LPS stimulation

| Compound | EC20 (concentration necessary for suppressing 20% of the expression level of MHC class I molecules) [1] [µM] | pEC50 [2] | pIC50 ([3]; Homo sapiens) | other results |
| --- | --- | --- | --- | --- |
| CC(C)NC(=O)Nc1nc2nccc(-c3cccc(OCC4CCCO4)c3)n2n1 (stereo not drawn) [Example 184] | 0.21 | – | – | IC50 (mouse splenic cells; [4]): 0.63 µM; IC50 (mouse splenic cells; [5]): 0.29 µM |
| COc1ccc(-c2ccnc3nc(NC(=O)N[C@H](C(=O)N4CCN(C)CC4)C(C)C)nn23)cc1 [Example 069] | 0.41 | 5.55 | – | – |
| CC(=O)c1cccc(NC(=O)Nc2nc3nccc(-c4cccs4)n3n2)c1 [Example 005] | – | – | – | pIC50 [3]: 6.19 |
| O=C(Nc1nc2nccc(-c3cccs3)n2n1)NC1CCCCC1 [Example 007] | 0.18 | 6.18 | 6.01 | – |
| COc1ccc(-c2ccnc3nc(NC(=O)NC(C(=O)OC(C)(C)C)C(C)C)nn23)cc1 (stereo not drawn) [Example 045] | 0.03 | 6.92 | 6.55 | IC50 (mouse splenic cells; [6]): 0.41 µM; IC50 (mouse splenic cells; [7]): 0.09 µM |
| COc1ccc(-c2ccnc3nc(NC(=O)NC(C)C)nn23)cc1 [Example 030] | 0.4 | 6.32 | 5.90 | – |
| COc1ccc(-c2ccnc3nc(NC(=O)NC(C(=O)NCC4CCCO4)C(C)C)nn23)cc1 (stereo not drawn) [Example 071] | 0.53 | 6.17 | – | – |
| COc1ccc(-c2ccnc3nc(NC(=O)NCCC(=O)NCC4CCCO4)nn23)cc1 (stereo not drawn) [Example 158] | 0.39 | – | – | pIC50 [3]: 6.16 |
| COc1ccc(-c2ccnc3nc(NC(=O)NC4CCCC4)nn23)cc1 [Example 027] | 0.067 | 6.66 | – | – |
| O=C(Nc1nc2nccc(-c3ccc(O)cc3)n2n1)NC1CCCCC1 [Example 024] | 0.24 | 6.80 | 6.09 | – |
| COc1ccc(-c2ccnc3nc(NC(=O)N[C@@H](C)c4ccccc4)nn23)cc1 [Example 101] | 0.21 | 6.66 | 6.20 | IC50 (mouse splenic cells; [6]): 0.58 µM; IC50 (mouse splenic cells; [7]): 0.18 µM |
| COc1ccc(-c2ccnc3nc(NC(=O)N[C@@H](C)C(=O)OC(C)(C)C)nn23)cc1 [Example 049] | 0.23 | 6.68 | 5.79 | – |
| COc1ccc(-c2ccnc3nc(NC(=O)N[C@@H](C)CCCC(C)C)nn23)cc1 [Example 160] | 0.014 | – | – | pIC50 [3]: 6.81; IC50 (mouse splenic cells; [4]): 0.07 µM; IC50 (mouse splenic cells; [5]): 0.04 µM |
| COc1ccc(-c2ccnc3nc(NC(=O)NCc4ccccc4)nn23)cc1 [Example 018] | 0.052 | 6.54 | – | – |
| COc1ccc(-c2ccnc3nc(NC(=O)NC4CCN(Cc5ccccc5)CC4)nn23)cc1 [Example 059] | 0.23 | 6.28 | – | – |
| CC(C)NC(=O)Nc1nc2nccc(-c3cccc(OCCC4OCCCO4)c3)n2n1 [Example 183] | 0.22 | – | – | IC50 (mouse splenic cells; [4]): 0.55 µM; IC50 (mouse splenic cells; [5]): 0.14 µM |
| COc1ccc(-c2ccnc3nc(NC(=O)N[C@H](C(=O)NCCN(C)C)C(C)C)nn23)cc1 [Example 057] | – | – | – | pIC50 [3]: 5.57 |
| COc1ccc(-c2ccnc3nc(NC(=O)NC4CCCCC4)nn23)cc1 [Example 015] | 0.045 | 6.89 | 6.42 | – |
| COc1ccc(-c2ccnc3nc(NC(=O)NCCCN4CCOCC4)nn23)cc1 [Example 067] | 0.3 | 5.65 | – | – |
| O=C(Nc1ccccc1)Nc1nc2nccc(-c3cccs3)n2n1 [Example 001, 1-phenyl-3-[(7-thiophen-2-yl)-[1,2,4]triazolo[1,5-a]pyrimidin-2-yl]urea] | 1.1 | 6.34 | 5.91 | – |
| COCCOc1ccc(-c2ccnc3nc(NC(=O)N[C@@H](C)CCCC(C)C)nn23)cc1OCCOC [Example 252] | 0.05 | – | – | – |
| COCCCNC(=O)[C@@H](NC(=O)Nc1nc2nccc(-c3ccc(OC)cc3)n2n1)C(C)C [Example 095] | 0.63 | – | – | – |
| COc1ccc(-c2ccnc3nc(NC(=O)N[C@@H](C)C(=O)NCCN4CCCCC4)nn23)cc1.Cl [Example 125] | 0.82 | – | – | – |
